Among the data in PubChem BioAssay AID330 (DTP/NCI, 2004) are T/C values, retold here.

Structures are written as SMILES. Values joined by “and” are separate entries in the source; they are usually repeats but may differ in a detail not shown here. Equal values may be shown once. Inconclusive results and toxic doses are left out.

This test concerns P388 leukemia ip, CD2F1 mice, survival T/C. Put plainly: NCI In Vivo Anticancer Drug Screen. Data for tumor model P388 Leukemia (intraperitoneal) in CD2F1 (CDF1) mice. Conditions: endpoint: median survival time, higher = longer survival. The method in brief:
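Mice carrying the transplanted tumor received test compound or vehicle. Survival was recorded in each group, and the value is the treated-group measurement divided by that of the vehicle-treated control group.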

Where [1] appears, read: dose: 50.0 mg/kg/injection, schedule: Q01DX009 (ip), vehicle: saline.
Setting [2] is: dose: 100.0 mg/kg/injection, schedule: Q01DX009 (ip), vehicle: saline.
The mark [3] stands for this setting: dose: 200.0 mg/kg/injection, schedule: Q01DX009 (ip), vehicle: saline.
[4] abbreviates: dose: 50.0 mg/kg/injection, schedule: Q01DX009 (ip), vehicle: saline with Tween-80.
[5] abbreviates: dose: 100.0 mg/kg/injection, schedule: Q01DX009 (ip), vehicle: saline with Tween-80.
[6] abbreviates: dose: 200.0 mg/kg/injection, schedule: Q01DX009 (ip), vehicle: saline with Tween-80.
Where [7] appears, read: dose: 50.0 mg/kg/injection, schedule: Q01DX005 (ip), vehicle: saline with Tween-80.
Where [8] appears, read: dose: 100.0 mg/kg/injection, schedule: Q01DX005 (ip), vehicle: saline with Tween-80.
The mark [9] stands for this setting: dose: 60.0 mg/kg/injection, schedule: Q01DX005 (ip), vehicle: Klucel (hydroxypropylcellulose) (HPC).
Where [10] appears, read: dose: 120.0 mg/kg/injection, schedule: Q01DX005 (ip), vehicle: Klucel (hydroxypropylcellulose) (HPC).
The mark [11] stands for this setting: dose: 240.0 mg/kg/injection, schedule: Q01DX005 (ip), vehicle: Klucel (hydroxypropylcellulose) (HPC).
[12] abbreviates: dose: 12.5 mg/kg/injection, schedule: Q01DX009 (ip), vehicle: saline with Tween-80.
[13] abbreviates: dose: 25.0 mg/kg/injection, schedule: Q01DX009 (ip), vehicle: saline with Tween-80.

As for `COc1cc(N=Nc2c(Cl)cc([N+](=O)[O-])cc2Cl)c([OH+]C)cc1[N+]#N.COc1cc(N=Nc2c(Cl)cc([N+](=O)[O-])cc2Cl)c([OH+]C)cc1[N+]#N.[Cl][Zn][Cl]`, the T/C under setting [1] was 111 % of control and 115 % of control; the T/C under setting [2] was 120 % of control and 122 % of control; the T/C under setting [3] is 119 % of control and 124 % of control; the T/C (dose: 400.0 mg/kg/injection, schedule: Q01DX009 (ip), vehicle: saline) was 119 % of control.
On to `O=[N+]([O-])c1ccc(OCS(=O)(=O)c2ccc(Cl)cc2)cc1`, for which the T/C runs as follows: under setting [4], 95 % of control; under setting [5], 92 % of control; under setting [6], 95 % of control.
Take `NC(=S)N/N=C/c1c(-c2ccc(-c3ccccc3)cc2)nc2n1CCS2`: the T/C is 98 % of control (dose: 100.0 mg/kg/injection, schedule: Q04DX002 (ip), vehicle: Klucel (hydroxypropylcellulose) (HPC)); 104 % of control (dose: 200.0 mg/kg/injection, schedule: Q04DX002 (ip), vehicle: Klucel (hydroxypropylcellulose) (HPC)); 99 % of control (dose: 400.0 mg/kg/injection, schedule: Q04DX002 (ip), vehicle: Klucel (hydroxypropylcellulose) (HPC)).
With `C1CCN(CN2CCCCC2)CC1`, the T/C is, setting by setting: under setting [1], 104 % of control; under setting [2], 108 % of control.
With `CC(C)C1OCC(CCl)O1` (centres undefined), the T/C is, setting by setting: under setting [7], 104 % of control; under setting [8], 100 % of control; (dose: 200.0 mg/kg/injection, schedule: Q01DX005 (ip), vehicle: saline with Tween-80) 104 % of control.
In the case of `Brc1ccc2nc3ccccc3c(SCCCCCCSc3c4ccccc4nc4ccc(Br)cc34)c2c1`, the T/C reads like this: under setting [9], 87 % of control and 93 % of control; under setting [10], 89 % of control; under setting [11], 91 % of control.
For `COC(=O)Nc1nc2ccc(C(O)(c3ccccc3)c3cccs3)cc2[nH]1` (centres undefined), the T/C (dose: 25.0 mg/kg/injection, schedule: Q01DX005 (ip), vehicle: saline with Tween-80) was 95 % of control; the T/C under setting [7] was 95 % of control; the T/C under setting [8] was 99 % of control.
Turning to `Cn1ccnc1Sc1ccnc(Sc2ccc([N+](=O)[O-])cc2[N+](=O)[O-])n1`, the T/C under setting [1] is 108 % of control, the T/C under setting [2] is 96 % of control and the T/C under setting [3] is 87 % of control.
With `CC(C1CC2(C)OC2(CO)C(=O)O1)C1CCC2C3CC4OC45C(O)C4OC4C(=O)C5(C)C3CCC12C` (centres undefined), the T/C runs as follows: (dose: 5.0 mg/kg/injection, schedule: Q01DX005 (ip), vehicle: Klucel (hydroxypropylcellulose) (HPC)) 96 % of control; (dose: 10.0 mg/kg/injection, schedule: Q01DX005 (ip), vehicle: Klucel (hydroxypropylcellulose) (HPC)) 100 % of control; (dose: 20.0 mg/kg/injection, schedule: Q01DX005 (ip), vehicle: Klucel (hydroxypropylcellulose) (HPC)) 96 % of control; (dose: 40.0 mg/kg/injection, schedule: Q01DX005 (ip), vehicle: Klucel (hydroxypropylcellulose) (HPC)) 92 % of control; (dose: 80.0 mg/kg/injection, schedule: Q01DX005 (ip), vehicle: Klucel (hydroxypropylcellulose) (HPC)) 89 % of control.
In the case of `O=C1C(Br)CCC1(c1ccccc1)c1ccccc1` (centres undefined), the T/C reads like this: (dose: 100.0 mg/kg/injection, schedule: Q01DX001 (ip), vehicle: Klucel (hydroxypropylcellulose) (HPC)) 102 % of control; (dose: 200.0 mg/kg/injection, schedule: Q01DX001 (ip), vehicle: Klucel (hydroxypropylcellulose) (HPC)) 106 % of control; (dose: 400.0 mg/kg/injection, schedule: Q01DX001 (ip), vehicle: Klucel (hydroxypropylcellulose) (HPC)) 102 % of control.
Regarding `NC(CC(=O)O)C(=O)OCc1cccc(N=Nc2ccccc2)c1` (centres undefined), the T/C was 99 % of control (dose: 50.0 mg/kg/injection, schedule: Q04DX003 (ip), vehicle: saline with Tween-80); 90 % of control (dose: 100.0 mg/kg/injection, schedule: Q04DX003 (ip), vehicle: saline with Tween-80); 93 % of control (dose: 200.0 mg/kg/injection, schedule: Q04DX003 (ip), vehicle: saline with Tween-80).
For `CC1(C)OC2C(CO)OC(n3ccc(=O)[nH]c3=O)C2O1` (centres undefined), the T/C reads like this: (dose: 6.25 mg/kg/injection, schedule: Q01DX009 (ip), vehicle: saline with Tween-80) 107 % of control; under setting [12], 109 % of control; under setting [13], 100 % of control and 110 % of control and 120 % of control; under setting [4], 108 % of control and 92 % of control and 97 % of control; under setting [5], 90 % of control.
Turning to `C[CH2][Sn]([Cl])([Cl])[CH2]C.c1ccc2nc(-c3ccc4ccccc4n3)ccc2c1`, the T/C was 106 % of control under setting [9], 106 % of control under setting [10] and 103 % of control under setting [11].
In the case of `COn1nnc2c([N+](=O)[O-])cccc21`, the T/C runs as follows: under setting [12], 100 % of control; under setting [13], 94 % of control; under setting [4], 98 % of control.
On to `O=C(Nc1ccc(C2=NCC(O)CN2)cc1)c1ccc(C(=O)Nc2ccc(C3=NCC(O)CN3)cc2)cc1` (centres undefined), for which the T/C reads like this: (dose: 1.56 mg/kg/injection, schedule: Q01DX005 (ip), vehicle: saline with Tween-80) 122 % of control; (dose: 6.25 mg/kg/injection, schedule: Q01DX005 (ip), vehicle: saline with Tween-80) 155 % of control.
Regarding `O=C1/C(=C/c2cccc3ccccc23)SC(=S)N1Cc1ccco1`, the T/C is, setting by setting: under setting [4], 92 % of control; under setting [5], 92 % of control; under setting [6], 99 % of control.
With `O=C(Nc1cccc([N+](=O)[O-])c1)OCC#CCCl`, the T/C by setting is: (dose: 50.0 mg/kg/injection, schedule: Q01DX005 (ip), vehicle: saline + Tween-80 + alcohol) 102 % of control; (dose: 100.0 mg/kg/injection, schedule: Q01DX005 (ip), vehicle: saline + Tween-80 + alcohol) 101 % of control; (dose: 200.0 mg/kg/injection, schedule: Q01DX005 (ip), vehicle: saline + Tween-80 + alcohol) 100 % of control.
For the molecule `CCCCCCCCCCCCCCCC[N+](C)(C)C`, the T/C runs as follows: (dose: 1.56 mg/kg/injection, schedule: Q01DX009 (ip), vehicle: saline) 99 % of control and 115 % of control and 120 % of control; (dose: 1.56 mg/kg/injection, schedule: Q04DX003 (ip), vehicle: saline with Tween-80) 100 % of control; (dose: 2.0 mg/kg/injection, schedule: Q01DX009 (ip), vehicle: saline) 113 % of control; (dose: 3.12 mg/kg/injection, schedule: Q01DX009 (ip), vehicle: saline) 118 % of control and 121 % of control; (dose: 3.13 mg/kg/injection, schedule: Q01DX009 (ip), vehicle: saline) 109 % of control; (dose: 3.13 mg/kg/injection, schedule: Q04DX003 (ip), vehicle: saline with Tween-80) 104 % of control. Moreover, the T/C (dose: 4.7 mg/kg/injection, schedule: Q01DX009 (ip), vehicle: saline) is 86 % of control; the T/C (dose: 6.25 mg/kg/injection, schedule: Q04DX003 (ip), vehicle: saline with Tween-80) was 100 % of control and 112 % of control.
Turning to `CC1(C)CC(C)(O)N(CCc2ccccc2)C(=S)N1` (centres undefined), the T/C was 106 % of control (dose: 50.0 mg/kg/injection, schedule: Q01DX005 (ip), vehicle: Klucel (hydroxypropylcellulose) (HPC)); 98 % of control (dose: 100.0 mg/kg/injection, schedule: Q01DX005 (ip), vehicle: Klucel (hydroxypropylcellulose) (HPC)); 98 % of control (dose: 200.0 mg/kg/injection, schedule: Q01DX005 (ip), vehicle: Klucel (hydroxypropylcellulose) (HPC)).
As for `CCOC(=O)c1c[nH]c2oc(/C=N/N3CC(CN4CCOCC4)OC3=O)cc2c1=O` (centres undefined), the T/C by setting is: (dose: 50.0 mg/kg/injection, schedule: Q01DX005 (ip), vehicle: acid diluted with saline) 114 % of control; (dose: 100.0 mg/kg/injection, schedule: Q01DX005 (ip), vehicle: acid diluted with saline) 118 % of control; (dose: 100.0 mg/kg/injection, schedule: Q04DX002 (ip), vehicle: saline) 113 % of control.
For the molecule `Cc1cc(=O)c2c(C)nn(-c3ccccc3)c2[nH]1`, the T/C by setting is: (dose: 15.0 mg/kg/injection, schedule: Q01DX005 (ip), vehicle: Klucel (hydroxypropylcellulose) (HPC)) 98 % of control; (dose: 30.0 mg/kg/injection, schedule: Q01DX005 (ip), vehicle: Klucel (hydroxypropylcellulose) (HPC)) 100 % of control; under setting [9], 94 % of control; under setting [11], 93 % of control.
Regarding `CCCCCCCC[As](CCCCCCCC)SC1OC(COC(C)=O)C(OC(C)=O)C(OC(C)=O)C1OC(C)=O` (centres undefined), the T/C is 102 % of control (dose: 50.0 mg/kg/injection, schedule: Q01DX009 (ip), vehicle: Klucel (hydroxypropylcellulose) (HPC)) and 90 % of control (dose: 100.0 mg/kg/injection, schedule: Q01DX009 (ip), vehicle: Klucel (hydroxypropylcellulose) (HPC)).
